Here are results for one molecule from US20100173873A1, “TREATMENT OF METASTASIZED TUMORS” (Novartis Vaccines and Diagnostics, Inc., priority 2005, published 2010).

Entries after “also recorded” stand apart in the source; their conditions may differ. A value given as a limit tells only on which side of the number the result lay.

Test [1] deals with MV4;11 tumors. To be noted: 30 mg/kg/d.
A further test has as its system pERK in MV4;11 tumors. The experiment in a line: Target modulation in vivo, pERK in MV4;11 tumors. Details: species or system SCID-NOD mice. To be noted: 10 mg/kg/d p.o. The method, then:
[…]. […] For in vivo target modulation analyses, resected tumors were flash frozen, pulverized and stored at −70° C. prior to lysis with 150 mM NaCl, 1.5 mM MgCl2, 50 mM Hepes, pH 7.5, 10% glycerol, 1.0% Triton X-100, 1 mM EGTA, 50 mM NaF, 1 mM Na3VO4, 2 mM Pefabloc (Roche), and complete protease inhibitor cocktail (Roche). Protein content of the lysates was determined using the BCA assay (Bio-Rad, Hercules, Calif.). Western blot analysis for pERK was performed with a mouse antibody to pERK (1:1000, Cell Signaling, Beverly, Mass.) and incubated at 4° C. overnight. Total ERK level was evaluated by re-probing with antibody against total ERK (Cell Signaling). The membranes were then incubated for 1 hour at RT with 1:5000 horseradish peroxidase-conjugated anti-rabbit IgG (Jackson Immunoresearch, West Grove, Pa.). […] FLT3 or STAT5 phosphorylation was measured by probing with an anti-phosphotyrosine antibody (anti-pFLT3 antibody from Cell Signaling, and anti-pSTAT5 antibody from Upstate). Proteins were detected using enhanced chemiluminescence (ECL; Amersham Biosciences, Buckinghamshire, England) and visualized after exposure to Kodak film. Scanning densitometry was performed to quantify band intensities. […]
[…]. […] Tumors that were harvested after selected time points, were homogenized and analyzed for pFLT3 and pSTAT5 levels by IP/Western blot. […]

For test [2], the system named is MV4;11 tumors. The test is described as follows: Subcutaneous MV4;11 xenograft model. Type of test: in vivo, SCID-NOD mice.
Another test has as its target Raf. The test is described as follows: In vitro kinase assay, Raf. It counts as biochemical. Conditions: RTK table.
The next test relates to RS4;11 tumors. The experiment in a line: Subcutaneous RS4;11 xenograft model. Type of test: in vivo, SCID-NOD mice. To be noted: RS4;11 s.c., 10-150 mg/kg/d p.o. On the procedure:
. Animals received sterile rodent chow and water ad libitum and were housed in sterile filter-top cages with 12 hour light/dark cycles. All experiments were under the guidelines of the Association for Assessment and Accreditation of Laboratory Animal Care International.
Cells (5×10^6 cells/mouse) were reconstituted with 50% Matrigel (Becton Dickinson) and implanted s.c. into the right flank of SCID-NOD mice. Treatments were initiated when tumors were 200-1000 mm^3, as outlined in specific study designs. Mice were randomly assigned into cohorts (typically 10 mice/group for efficacy studies and 3-5 mice/group for pharmacodynamic (PD) studies). Compound 1 was administered as a solution via oral gavage. […] . […] Response rates were defined as complete responses CR (no palpable tumor) or partial responses PR (50-99% shrinkage) compared to tumor volume at treatment initiation.

[3] abbreviates: MV4;11 s.c., 30 mg/kg/d p.o., dose-response study.

Turning to `CN1CCN(c2ccc3nc(-c4c(N)c5c(F)cccc5[nH]c4=O)[nH]c3c2)CC1` [Compound 1, 4-Amino-5-fluoro-3-[6-(4-methylpiperazin-1-yl)-1H-benzimidazol-2-yl]quinolin-2(1H)-one], the Phospho-ERK immunohistochemical staining entry with MV4;11 tumors [1] (5-day dosing period) was “significantly lowered”. For the same molecule, the “Ki67 staining (proliferation)” value with MV4;11 tumors [1] (after 5 doses) is “reduced Ki67 staining”. Further, in the test on MV4;11 tumors [1] (day 5), the “Apoptosis (activated caspase-3, cleaved PARP staining)” value was “increased activated caspase-3 and cleaved PARP staining”. The “pERK levels in tumors” value in the test on pERK in MV4;11 tumors was “Decreases in pERK levels”. Further, the “Complete responses (CR)” value in the test with MV4;11 tumors [2] (MV4;11 s.c., 30 mg/kg p.o. daily, schedule study (FIG. 4)) is recorded as 1. Moreover, in the test with MV4;11 tumors [2] (MV4;11 s.c., 30 mg/kg p.o., intermittent dosage regimens), the “Tumor growth inhibition (TGI)” value was > 94%. Further, in the test with MV4;11 tumors [2] (setting [3]), the “Complete responses (CR)” value is reported as 1 and the Tumor responses is reported as 9/10. Besides, the “Doses with significant tumor growth inhibition” value in the test on MV4;11 tumors [2] (MV4;11 s.c., p.o., FIG. 2) is > 5 mg/kg/day. For the same molecule, the “Minor responses or stable” value in the test on MV4;11 tumors [2] (large MV4;11 tumors 300, 500 or 1000 mm^3, 30 mg/kg/d, n=27) stood at 15%. Further, in the test with MV4;11 tumors [2] (large MV4;11 tumors, 30 mg/kg/d for 50 days), the “Complete responses durable for 40 days after cessation of dosing” value is given as “One CR”. In addition, in the test with MV4;11 tumors [2] (tumors staged at 300, 500 or 1000 mm^3, 30 mg/kg/d), the “Regression of large MV4;11 tumors” value is listed as “significant regression in all MV4;11 tumors; also recorded: induces regression of large MV4;11 tumors”. In addition, on Raf, the IC50 (usually the concentration that gives 50% inhibition) is > 10 µM. Also, the Tumor regressions result in the test on RS4;11 tumors is reported as “no regressions were observed”.
